Experimental data published in patent US11053204B2, “Pyrimidinyloxy benzene derivatives as herbicides” (FMC Corporation, priority 2015, dated 2021).

Experiments:
Format in all cases: in vivo
[1] = system: Italian ryegrass (Lolium multiflorum); test: Test A preemergence, visual injury rating; settings: 0 to 100 scale (0 no effect, 100 complete control)
Procedure, shortened: (§1)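 Compounds in non-phytotoxic solvent with surfactant applied as soil spray preemergence, or postemergence to plants 2-10 cm at one- to two-leaf stage, in loam/sand. After approximately 10 days in greenhouse, injury rated visually versus untreated controls, 0 (no effect) to 100 (complete control).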

[2] = system: barnyardgrass (Echinochloa crus-galli); test: Test A preemergence, visual injury rating; settings: 0 to 100 scale (0 no effect, 100 complete control)
Procedure, shortened: as §1

[3] = system: giant foxtail (Setaria faberii); test: Test A preemergence, visual injury rating; settings: 0 to 100 scale (0 no effect, 100 complete control)
Procedure, shortened: as §1

kochia (Kochia scoparia) = test: Test A preemergence, visual injury rating; settings: 0 to 100 scale (0 no effect, 100 complete control)
Procedure, shortened: as §1

[4] = system: pigweed (Amaranthus retroflexus); test: Test A preemergence, visual injury rating; settings: 0 to 100 scale (0 no effect, 100 complete control)
Procedure, shortened: as §1

[5] = system: ragweed (common ragweed, Ambrosia elatior); test: Test A preemergence, visual injury rating; settings: 500 g ai/ha, 0 to 100 scale (0 no effect, 100 complete control)
Procedure, shortened: as §1

[6] = system: blackgrass (Alopecurus myosuroides); test: Test C postemergence, plant response rating; settings: for Plant response rating, Blackgrass: scale 0 to 100; for Blackgrass plant response rating: scale 0 to 100 (0 no effect, 100 complete control)
Excerpt: (§2) Seeds of plant species selected from blackgrass (Alopecurus myosuroides), ryegrass, Italian (Italian ryegrass, Lolium multiflorum), wheat (winter wheat, Triticum aestivum), galium (catchweed bedstraw, Galium aparine), corn (Zea mays), crabgrass, large (large crabgrass, Digitaria sanguinalis), foxtail, giant (giant foxtail, Setaria faberii), johnsongrass (Sorghum halepense), lambsquarters (Chenopodium album), morningglory (Ipomoea coccinea), nutsedge, yellow (yellow nutsedge, Cyperus esculentus), pigweed (Amaranthus retroflexus), ragweed (common ragweed, Ambrosia elatior), soybean (Glycine max), barnyardgrass (Echinochloa crus-galli), oilseed rape (Brassica napus), pigweed, palmer (palmer pigweed, Amaranthus palmeri), waterhemp (common waterhemp, Amaranthus rudis), velvetleaf (Abutilon theophrasti), kochia (Kochia scoparia), surinam grass (Brachiaria decumbens), nightshade (eastern black nightshade, Solanum ptycanthum), wild poinsettia (Euphorbia heterophylla), windgrass (Apera spica-venti), and oat, wild (wild oat Avena fatua), were planted into a blend of loam soil and sand or a silt loam soil and treated preemergence with test chemicals formulated in a non-phytotoxic solvent mixture which included a surfactant.
(§3) At the same time, plants selected from these crop and weed species and also chickweed (common chickweed, Stellaria media), buckwheat, wild (wild buckwheat, Polygonum convolvulus), wild mustard (Sinapis arvensis), field poppy (Papaver rhoeas), field violet (Viola arvensis), geranium, cutleaf (cutleaf geranium, Geranium dissectum), Canada thistle (Cirsium arvense), and speedwell (bird's-eye speedwell, Veronica persica), were planted in pots containing Sunshine Redi-Earth® planting medium comprising spaghnum peat moss, vermiculite, starter nutrients and dolomitic limestone and treated with postemergence applications of test chemicals formulated in the same manner. Plants ranged in height from 2 to 18 cm (1- to 4-leaf stage) for postemergence treatments. Treated plants and controls were maintained in a greenhouse for 13 to 15 d, after which time all species were compared to controls and visually evaluated. Plant response ratings, summarized in Table C, are based on a scale of 0 to 100 where 0 is no effect and 100 is complete control. A dash (-) response means no test result.

[7] = system: chickweed (common chickweed, Stellaria media); test: Test C postemergence, plant response rating; settings: for Plant response rating, Chickweed: scale 0 to 100; for Chickweed plant response rating: scale 0 to 100 (0 no effect, 100 complete control)
Excerpt: as §2, §3

corn (Zea mays) = test: Test C postemergence, plant response rating; settings: for Plant response rating, Corn: scale 0 to 100; for Corn plant response rating: scale 0 to 100 (0 no effect, 100 complete control)
Excerpt: as §2, §3

[8] = system: crabgrass, large (large crabgrass, Digitaria sanguinalis); test: Test C postemergence, plant response rating; settings: for Plant response rating, Crabgrass, Large: scale 0 to 100; for Crabgrass, Large plant response rating: scale 0 to 100 (0 no effect, 100 complete control)
Excerpt: as §2, §3

[9] = system: foxtail, giant (giant foxtail, Setaria faberii); test: Test C postemergence, plant response rating; settings: for Plant response rating, Foxtail, Giant: scale 0 to 100; for Foxtail, Giant plant response rating: scale 0 to 100 (0 no effect, 100 complete control)
Excerpt: as §2, §3

[10] = system: galium (catchweed bedstraw, Galium aparine); test: Test C postemergence, plant response rating; settings: for Plant response rating, Galium: scale 0 to 100; for Galium plant response rating: scale 0 to 100 (0 no effect, 100 complete control)
Excerpt: as §2, §3

[11] = system: lambsquarters (Chenopodium album); test: Test C postemergence, plant response rating; settings: for Plant response rating, Lambsquarters: scale 0 to 100; for Lambsquarters plant response rating: scale 0 to 100 (0 no effect, 100 complete control)
Excerpt: as §2, §3

[12] = system: nutsedge, yellow (yellow nutsedge, Cyperus esculentus); test: Test C postemergence, plant response rating; settings: for Plant response rating, Nutsedge, Yellow: scale 0 to 100; for Nutsedge, Yellow plant response rating: scale 0 to 100 (0 no effect, 100 complete control)
Excerpt: as §2, §3

[13] = system: oat, wild (wild oat Avena fatua); test: Test C postemergence, plant response rating; settings: for Plant response rating, Oat, Wild: scale 0 to 100; for Oat, Wild plant response rating: scale 0 to 100 (0 no effect, 100 complete control)
Excerpt: as §2, §3

[14] = system: ryegrass, Italian (Italian ryegrass, Lolium multiflorum); test: Test C postemergence, plant response rating; settings: for Plant response rating, Ryegrass, Italian: scale 0 to 100; for Ryegrass, Italian plant response rating: scale 0 to 100 (0 no effect, 100 complete control)
Excerpt: as §2, §3

soybean (Glycine max) = test: Test C postemergence, plant response rating; settings: for Plant response rating, Soybean: scale 0 to 100; for Soybean plant response rating: scale 0 to 100 (0 no effect, 100 complete control)
Excerpt: as §2, §3

[15] = system: wheat (winter wheat, Triticum aestivum); test: Test C postemergence, plant response rating; settings: for Plant response rating, Wheat: scale 0 to 100; for Wheat plant response rating: scale 0 to 100 (0 no effect, 100 complete control)
Excerpt: as §2, §3

## N#CCCOC(=O)c1c(Br)cccc1Oc1ncc(Cl)cn1 [Compound 7]
[1]; 125 g ai/ha
  Ryegrass, Italian plant response rating: 0
[1]; 500 g ai/ha
  Ryegrass, Italian plant response rating: 30
[2]; 125 g ai/ha
  Barnyardgrass plant response rating: 50
[2]; 500 g ai/ha
  Barnyardgrass plant response rating: 100
[3]; 125 g ai/ha
  Foxtail, Giant plant response rating: 90
[3]; 500 g ai/ha
  Foxtail, Giant plant response rating: 100
Kochia (Kochia scoparia); 125 g ai/ha
  Kochia plant response rating: 50
Kochia (Kochia scoparia); 500 g ai/ha
  Kochia plant response rating: 100
[4]; 125 g ai/ha
  Pigweed plant response rating: 100
[4]; 500 g ai/ha
  Pigweed plant response rating: 100
[5]
  Ragweed plant response rating: 50
[6]; 16 g ai/ha
  Plant response rating, Blackgrass: 0
[6]; 31 g ai/ha
  Plant response rating, Blackgrass: 0
[6]; 62 g ai/ha
  Blackgrass plant response rating: 0
[6]; 125 g ai/ha
  Blackgrass plant response rating: 5
[7]; 16 g ai/ha
  Plant response rating, Chickweed: 5
[7]; 31 g ai/ha
  Plant response rating, Chickweed: 5
[7]; 62 g ai/ha
  Chickweed plant response rating: 30
[7]; 125 g ai/ha
  Chickweed plant response rating: 50
Corn (Zea mays); 16 g ai/ha
  Plant response rating, Corn: 5
Corn (Zea mays); 31 g ai/ha
  Plant response rating, Corn: 10
Corn (Zea mays); 62 g ai/ha
  Corn plant response rating: 10
Corn (Zea mays); 125 g ai/ha
  Corn plant response rating: 15
[8]; 16 g ai/ha
  Plant response rating, Crabgrass, Large: 5
[8]; 31 g ai/ha
  Plant response rating, Crabgrass, Large: 5
[8]; 62 g ai/ha
  Crabgrass, Large plant response rating: 20
[8]; 125 g ai/ha
  Crabgrass, Large plant response rating: 15
[9]; 16 g ai/ha
  Plant response rating, Foxtail, Giant: 5
[9]; 31 g ai/ha
  Plant response rating, Foxtail, Giant: 5
[9]; 62 g ai/ha
  Foxtail, Giant plant response rating: 10
[9]; 125 g ai/ha
  Foxtail, Giant plant response rating: 15
[10]; 16 g ai/ha
  Plant response rating, Galium: 0
[10]; 31 g ai/ha
  Plant response rating, Galium: 0
[10]; 62 g ai/ha
  Galium plant response rating: 10
[10]; 125 g ai/ha
  Galium plant response rating: 40
[11]; 16 g ai/ha
  Plant response rating, Lambsquarters: 5
[11]; 31 g ai/ha
  Plant response rating, Lambsquarters: 25
[11]; 62 g ai/ha
  Lambsquarters plant response rating: 30
[11]; 125 g ai/ha
  Lambsquarters plant response rating: 55
[12]; 16 g ai/ha
  Plant response rating, Nutsedge, Yellow: 0
[12]; 31 g ai/ha
  Plant response rating, Nutsedge, Yellow: 0
[12]; 62 g ai/ha
  Nutsedge, Yellow plant response rating: 5
[12]; 125 g ai/ha
  Nutsedge, Yellow plant response rating: 5
[13]; 16 g ai/ha
  Plant response rating, Oat, Wild: 0
[13]; 31 g ai/ha
  Plant response rating, Oat, Wild: 0
[13]; 62 g ai/ha
  Oat, Wild plant response rating: 5
[13]; 125 g ai/ha
  Oat, Wild plant response rating: 5
[14]; 16 g ai/ha
  Plant response rating, Ryegrass, Italian: 10
[14]; 31 g ai/ha
  Plant response rating, Ryegrass, Italian: 0
[14]; 62 g ai/ha
  Ryegrass, Italian plant response rating: 30
[14]; 125 g ai/ha
  Ryegrass, Italian plant response rating: 30
Soybean (Glycine max); 16 g ai/ha
  Plant response rating, Soybean: 25
Soybean (Glycine max); 31 g ai/ha
  Plant response rating, Soybean: 25
Soybean (Glycine max); 62 g ai/ha
  Soybean plant response rating: 40
Soybean (Glycine max); 125 g ai/ha
  Soybean plant response rating: 70
[15]; 16 g ai/ha
  Plant response rating, Wheat: 0
[15]; 31 g ai/ha
  Plant response rating, Wheat: 0
[15]; 62 g ai/ha
  Wheat plant response rating: 5
[15]; 125 g ai/ha
  Wheat plant response rating: 5
